# From publication PMC12351382, “Fibrinography and thrombography (thrombodynamics-4D) in atrial fibrillation assessment of direct oral anticoagulants in geriatrics patients aged 80 years and older receiving direct oral anticoagulant therapy” (Research and Practice in Thrombosis and Haemostasis, 2025)
# Assays:
# [1] = Plasma DOAC concentration in ADAGE patients (chromogenic anti-FXa assay for rivaroxaban and apixaban; anti-FIIa Hemoclot assay for dabigatran); format: in vivo, human; conditions: for DOAC concentration, median (IQR): ADAGE patients ≥80 y, reduced dose: rivaroxaban 15 mg once daily, apixaban 2.5 mg twice daily, dabigatran 110 mg twice daily; for DOAC concentration, range: ADAGE patients, reduced dose (regimens as E1)
# Description: (§1) ADAGE is an academic, prospective, observational multicenter study (NCT 02464488; for details, see Foulon-Pinto et al.). We recruited hospitalized patients from the university hospital’s geriatric department (Assistance Publique-Hôpitaux de Paris, Paris, France). […] The DOAC dose regimen was at the discretion of the physician. Exclusion criteria included any acute, unstable comorbid condition or an estimated life expectancy of a few weeks. Sampling (see below) and last DOAC intake times were recorded on a standardized request form. Sampling time points were at the discretion of the physicians over a period of 20 days following inclusion. Time points were classified according to the time elapsed from the last oral intake (T, hours) for patients receiving rivaroxaban. T1 to T4 corresponded to peak time (Tmax), and T20 to T24 corresponded to trough (Tmin). […] Physicians prospectively collected demographic, clinical, and laboratory data (including creatinine clearance [CrCl] calculated with the Cockcroft–Gault formula). The study was approved by the institutionnel Ethics Committee (Comité consultatif de protection des personnes pour la recherche biomédicale–Île-de-France-6–number 15.074bis). All participants gave written informed consent to participate in the study. Only patients for whom remaining plasma aliquots were available were included in the present study.
# (§2) Tubes were sent to each centre’s laboratory within 2 hours after sampling and immediately double-centrifuged for 15 minutes at 2000 × g at 15 to 22 °C to obtain platelet-poor plasma. Plasma samples (500 μL aliquots) were stored at −80 °C prior to shipment on dry ice for central analysis (Haematology Laboratory, Hôpital Lariboisière). Plasma samples were thawed for 3 to 5 minutes in a 37 °C water bath just before testing.
# Dedicated calibrations and controls were used. The lower limit of quantification was 20 ng/mL for the 3 assays.
# fibrin clot formation [2] = experiment: Thrombodynamics-4D fibrinography in plasma samples from ADAGE patients on DOACs; format: in vivo, human; conditions: for CS (clot size at 30 minutes), median (IQR) / CS (clot size at 30 minutes), range / D (clot density), median (IQR) / D (clot density), range / Fibrinography Tlag (lag time), median (IQR) / Fibrinography Tlag (lag time), range / Initial rate of clot growth (Vi), median (IQR) / Initial rate of clot growth (Vi), range / Time to Tsp (spontaneous clotting), median (IQR) / Time to Tsp (spontaneous clotting), range: ADAGE patients, reduced dose (regimens as E1)
# Description: as §1, §2
# (§3) The TD-4D assay was performed centrally using the Thrombodynamics analyzer system (Hemacore, Diapharma) with the TD-4D PLS dedicated kit (Hemacore, Diapharma). The system simultaneously measures spatiotemporal parameters of fibrin clot formation (fibrinography) and TG process (thrombography) in a thin layer of unstirred plasma. Briefly, 120 μL of platelet-poor plasma is added to a microcuvette containing corn trypsin inhibitor to prevent contribution of contact phase activation, then 5 μL of phospholipid solution (manufacturer’s reagent) is added. After incubation for 15 minutes at 37 °C in the Thrombodynamics device, the mixture is transferred to a second microcuvette containing calcium ions, and then immediately transferred to the measurement cuvette. Finally, the activator insert, whose surface is coated with immobilized tissue factor (100 pmol/m^2), is then transferred to the cuvette. The process of fibrin clot formation is recorded in a time-lapse video-microscopy mode using a dark-field light scattering method. Simultaneously, the system monitors TG by fluorimetry, based on the ability of thrombin to cleave a fluorogenic substrate, 7-amino-4-methylcoumarin (AMC) bound to a short amino acid sequence (Arg-Gly-Gly). The rate of AMC formation is proportional to local thrombin concentration. The microcuvette is maintained at 37 °C and is illuminated with red (625 nm) or ultra-violet (365 nm) light emitting diodes. Clot growth is detected with red light scattering, while AMC fluorescence is detected with UV. Scattered red light and fluorescence passing through the macro lens are recorded by a charge-coupled device system. Images under red and blue light are acquired once per minute. The whole analysis lasts 1 hour. The Thrombodynamics software (Hemacore, Diapharma) calculates parameters of spatiotemporal dynamics of fibrin clot formation and TG [40, 46]. […]
# thrombin generation [3] = experiment: Thrombodynamics-4D thrombography in plasma samples from ADAGE patients on DOACs; format: in vivo, human; conditions: for ETP (endogenous thrombin potential, ETP_ATG), median (IQR) / ETP (endogenous thrombin potential, ETP_ATG), range / Thrombin peak height (Cmax_ATG), median (IQR) / Thrombin peak height (Cmax_ATG), range / Thrombography Tlag (Lag_ATG), median (IQR) / Thrombography Tlag (Lag_ATG), range / Time to peak (Tmax_ATG), median (IQR) / Time to peak (Tmax_ATG), range: ADAGE patients, reduced dose (regimens as E1)
# Description: as §1, §2, §3
# fibrin clot formation [4] = experiment: Thrombodynamics-4D fibrinography in pooled normal plasma (Cryocheck) spiked with DOACs; format: biochemical, human; conditions: 0 to 1000 nM, mainly at low DOAC concentrations
# Protocol: (§4) Frozen pooled normal plasma samples (Cryocheck-Cryopep) were spiked with increasing concentrations of DOACs (0-450 ng/mL), as previously described. […] were kindly provided by Bristol Myers Squibb/Pfizer, Bayer Healthcare, and Boehringer Ingelheim, respectively.
# The TD-4D assay was performed centrally using the Thrombodynamics analyzer system (Hemacore, Diapharma) with the TD-4D PLS dedicated kit (Hemacore, Diapharma). The system simultaneously measures spatiotemporal parameters of fibrin clot formation (fibrinography) and TG process (thrombography) in a thin layer of unstirred plasma. Briefly, 120 μL of platelet-poor plasma is added to a microcuvette containing corn trypsin inhibitor to prevent contribution of contact phase activation, then 5 μL of phospholipid solution (manufacturer’s reagent) is added. […] The process of fibrin clot formation is recorded in a time-lapse video-microscopy mode using a dark-field light scattering method. […] Clot growth is detected with red light scattering, while AMC fluorescence is detected with UV. Scattered red light and fluorescence passing through the macro lens are recorded by a charge-coupled device system. […]
# (§5) The following fibrinography parameters were recorded (see Supplementary Table 1): (i) lag time (Tlag, minutes); (ii) initial rate of clot growth (Vi, μm/min); (iii) rate of clot growth (V, μm/min); (iv) clot size (CS, μm) measured at 30 minutes; (v) clot density (D, arbitrary units); (vi) time to spontaneous clotting (Tsp, minutes). The following thrombography parameters (at the near-activator area) were recorded (see Supplementary Table 1): (i) Tlag (minutes); (ii) time to thrombin peak (minutes); (iii) maximal thrombin concentration (ie, thrombin peak height, Cmax_ATG, AU/L); (iv) endogenous thrombin potential (ETP_ATG, AU⋅min/L); (v) stationary amplitude of moving peak of thrombin (Ast, AU/L); (vi) rate of thrombin peak propagation (μm/min; see Supplementary Videos 1–3).
# thrombin generation [5] = experiment: Thrombodynamics-4D thrombography in pooled normal plasma (Cryocheck) spiked with DOACs; format: biochemical, human
# Protocol: as §4
# as §3, with “minute.” for “minute. The whole analysis lasts 1 hour. The Thrombodynamics software (Hemacore, Diapharma) calculates parameters of spatiotemporal dynamics of fibrin clot formation and TG [40, 46].”
# as §5
# [6] = all ADAGE patient samples, any time point and dose
# [7] = all ADAGE patient samples, Spearman
# [8] = univariate analysis, Tmax, line marked Halving
# [9] = univariate analysis, Tmin, line marked Halving
structure (smiles),measurement,setting,value
O=C(NC[C@H]1CN(c2ccc(N3CCOCC3=O)cc2)C(=O)O1)c1ccc(Cl)s1 [Rivaroxaban],"DOAC concentration, median (IQR)",[1]; Tmax (peak),248 (181-397) ng/mL
same,"DOAC concentration, range",[1]; Tmax (peak),64 to 676 ng/mL
same,"DOAC concentration, median (IQR)",[1]; Tmin (trough),42 (27-69) ng/mL
same,"DOAC concentration, range",[1]; Tmin (trough),20 to 149 ng/mL
same,"DOAC plasma concentration, lower end of range",[1]; [6],< 20 ng/mL
same,"DOAC plasma concentration, upper end of range",[1]; [6],676 ng/mL
same,"CS (clot size at 30 minutes), median (IQR)",fibrin clot formation [2]; Tmax (peak),1236 (1112-1393) μm
same,"CS (clot size at 30 minutes), range",fibrin clot formation [2]; Tmax (peak),1019-1759 μm
same,"D (clot density), median (IQR)",fibrin clot formation [2]; Tmax (peak),"23,230 (20,060-28,420) a.u."
same,"D (clot density), range",fibrin clot formation [2]; Tmax (peak),"14,690-33,710 a.u."
same,"Fibrinography Tlag (lag time), median (IQR)",fibrin clot formation [2]; Tmax (peak),2.0 (1.7-2.6) min
same,"Fibrinography Tlag (lag time), range",fibrin clot formation [2]; Tmax (peak),1.3 to 4.7 min
same,"Initial rate of clot growth (Vi), median (IQR)",fibrin clot formation [2]; Tmax (peak),60.6 (56.2-65.3) μm/min
same,"Initial rate of clot growth (Vi), range",fibrin clot formation [2]; Tmax (peak),45.0-84.6 μm/min
same,"Time to Tsp (spontaneous clotting), median (IQR)",fibrin clot formation [2]; Tmax (peak),18.5 (11.4-31.6) min
same,"Time to Tsp (spontaneous clotting), range",fibrin clot formation [2]; Tmax (peak),7.7 to 58.1 min
same,"CS (clot size at 30 minutes), median (IQR)",fibrin clot formation [2]; Tmin (trough),1691 (1632-1734) μm
same,"CS (clot size at 30 minutes), range",fibrin clot formation [2]; Tmin (trough),1276-2029 μm
same,"D (clot density), median (IQR)",fibrin clot formation [2]; Tmin (trough),"23,940 (20,550-30,160) a.u."
same,"D (clot density), range",fibrin clot formation [2]; Tmin (trough),"18,160-37,370 a.u."
same,"Fibrinography Tlag (lag time), median (IQR)",fibrin clot formation [2]; Tmin (trough),1.2 (1.0-1.4) min
same,"Fibrinography Tlag (lag time), range",fibrin clot formation [2]; Tmin (trough),0.8 to 2.1 min
same,"Initial rate of clot growth (Vi), median (IQR)",fibrin clot formation [2]; Tmin (trough),70.4 (64.9-75.8) μm/min
same,"Initial rate of clot growth (Vi), range",fibrin clot formation [2]; Tmin (trough),56.5-87.1 μm/min
same,"Time to Tsp (spontaneous clotting), median (IQR)",fibrin clot formation [2]; Tmin (trough),10.9 (7.1-23.1) min
same,"Time to Tsp (spontaneous clotting), range",fibrin clot formation [2]; Tmin (trough),3.2 to 42.3 min
same,Change of CS (clot size) with increasing concentrations,fibrin clot formation [2]; all ADAGE patient samples,decreased
same,Association of D (clot density) with DOAC concentration,fibrin clot formation [2]; [7],not
same,Relationship between time to spontaneous clot formation (Tsp) and DOAC levels,fibrin clot formation [2]; [7],no relationship
same,Effect of DOAC concentration at Tmax (βC.pic) on fibrinography initial velocity of clot formation,fibrin clot formation [2]; [8],≈ −0.001769%
same,Effect of DOAC concentration at Tmin (βC.res) on fibrinography initial velocity of clot formation,fibrin clot formation [2]; [9],≈ 0.08094%
same,"ETP (endogenous thrombin potential, ETP_ATG), median (IQR)",thrombin generation [3]; Tmax (peak),1391 (1176-1774) AU⋅min/L
same,"ETP (endogenous thrombin potential, ETP_ATG), range",thrombin generation [3]; Tmax (peak),601-2371 AU⋅min/L
same,"Thrombin peak height (Cmax_ATG), median (IQR)",thrombin generation [3]; Tmax (peak),203 (140-268) AU/L
same,"Thrombin peak height (Cmax_ATG), range",thrombin generation [3]; Tmax (peak),64-371 AU/L
same,"Thrombography Tlag (Lag_ATG), median (IQR)",thrombin generation [3]; Tmax (peak),1.1 (0.8-1.5) min
same,"Thrombography Tlag (Lag_ATG), range",thrombin generation [3]; Tmax (peak),0.6 to 3.9 min
same,"Time to peak (Tmax_ATG), median (IQR)",thrombin generation [3]; Tmax (peak),3.1 (2.6-3.8) min
same,"Time to peak (Tmax_ATG), range",thrombin generation [3]; Tmax (peak),2.6 to 7.1 min
same,"ETP (endogenous thrombin potential, ETP_ATG), median (IQR)",thrombin generation [3]; Tmin (trough),1832 (1322-2480) AU⋅min/L
same,"ETP (endogenous thrombin potential, ETP_ATG), range",thrombin generation [3]; Tmin (trough),557-3572 AU⋅min/L
same,"Thrombin peak height (Cmax_ATG), median (IQR)",thrombin generation [3]; Tmin (trough),289 (254-422) AU/L
same,"Thrombin peak height (Cmax_ATG), range",thrombin generation [3]; Tmin (trough),132- 544 AU/L
same,"Thrombography Tlag (Lag_ATG), median (IQR)",thrombin generation [3]; Tmin (trough),0.2 (0.1-0.4) min
same,"Thrombography Tlag (Lag_ATG), range",thrombin generation [3]; Tmin (trough),0.1 to 0.9 min
same,"Time to peak (Tmax_ATG), median (IQR)",thrombin generation [3]; Tmin (trough),2.1 (1.6-2.1) min
same,"Time to peak (Tmax_ATG), range",thrombin generation [3]; Tmin (trough),1.6 to 3.1 min
same,Change of ETP_ATG with increasing DOAC plasma concentrations,thrombin generation [3]; all ADAGE patient samples,decreased
same,Effect of DOAC concentration at Tmax (βC.pic) on thrombography peak height (PH),thrombin generation [3]; [8],≈ 0.1032%
same,Effect of DOAC concentration at Tmin (βC.res) on thrombography peak height (PH),thrombin generation [3]; [9],≈ 0.238%
same,Samples in which spontaneous clotting occurred,fibrin clot formation [4],14%
same,Change of Ast (stationary amplitude of thrombin moving peak) with increasing concentrations,thrombin generation [5],not
